Laboratory results reported in patent US12280060B2, “Methods of treating cancer using neuronal activity inhibiting agents” (Washington University, priority 2021, dated 2025).
“Also recorded” adds a separate entry of the source.

What was measured:
[1] = test system: neurofibromas; conditions: cited from earlier work
[2] = test system: Nf1+/neo hippocampal neurons; format: cell-based, mouse
[3] = test system: RAS; format: cell-based, mouse
[4] = test system: midkine; format: cell-based, mouse
[5] = test system: midkine; format: cell-based, mouse; remark: listed apart in the source
[6] = test system: Nf1+/neo RGC neurons; format: cell-based, mouse
[7] = test system: Nf1+/neo DRG neurons; format: cell-based, mouse
[8] = test system: Col1a2; format: cell-based, mouse
[9] = test system: Nf1+/neo and Nf1-OPG mice; test: In vivo treatment: Mdk/midkine, Nlgn3, Adam10 expression in retinae and optic nerves; design: species or system mouse; conditions: for effect on midkine expression in the RGC layer of retinae: 12-week-old Nf1-OPG mice, LTR or lovastatin in vivo; for effect on Nlgn3 RNA expression in vivo: retinae / optic nerves of Nf1+/neo or Nf1-OPG mice
Experimental: Supplementary Table 2) and TaqMan Fast Advanced Master Mix (Applied Biosystems) according to the manufacturer's instructions. All reactions were performed using the Bio-Rad CFX96 Real-Time PCR system equipped with Bio-Rad CFX Manager 3.1 software. Gene expression levels of technical replicates were estimated by ΔΔCt method using GAPDH or Gapdh (see e.g., TABLE 2) as reference genes. In total, 17 Nf1^flox/neo; GFAP-Cre (Nf1-OPG) mice were intraperitoneally administered vehicle (saline in 1% methylcellulose; n=9) or 25 mg/Kg body weight lamotrigine (Selleckchem; n=8) from four to six weeks of age, three times a week. The mice were then aged to 12 weeks for optic nerve and RGC analysis. […] The mice were analyzed at 12 weeks of age. […] These mice were analyzed at 24 weeks of age. […] These mice were analyzed at 12 weeks of age. For pNF analyses, Nf1^−/− DRG-NSCs were implanted in sciatic nerves of 8-week-old athymic nude mice as previously described. Briefly, the mice underwent surgery to create a pocket by displacing the quadriceps muscle and exposing their sciatic nerve. In all, 1×10^6 Nf1^−/− DRG-NSCs were implanted in the pocket around the sciatic nerve, such that the cells could be in direct contact with the nerve before the muscle and skin were sutured. Following recovery from the surgery, the mice were intraperitoneally administered vehicle (saline in 1% methylcellulose; n=5) or 25 mg/kg body weight lamotrigine (Selleckchem; n=5) three times a week for 6 weeks prior to histological analysis.

[10] = test system: Nf1f/neo; hGFAP-Cre (Nf1-OPG) mice; test: In vivo Nf1-OPG (optic pathway glioma) progression; design: species or system mouse; conditions: for optic nerve proliferation (% Ki67+ cells), fold decrease: mouse, in vivo
[11] = test system: NF1-pNFs in athymic nude mice; test: In vivo pNF progression (Nf1-/- DRG-NSCs implanted in sciatic nerve); design: species or system mouse
[12] = test system: Nf1-mutant neurons; test: Excitability of Nf1-mutant neurons; format: cell-based
Experimental: (§1) Nf1-mutant neurons were treated with the antiepileptic drug rufinamide. Treatment with rufinamide reduced Midkine expression (see e.g., FIG. 47) and neuronal excitability (see e.g., FIG. 48).

[13] = test system: Midkine; test: Mdk (Midkine transcript) levels in Nf1-mutant neurons; format: cell-based
Experimental: as §1

[14] = test system: Col1a2; test: COL1A2 RNA expression in mouse Nf1-/- DRG-NSCs; format: cell-based; conditions: COL1A2 treatment
[15] = test system: Nf1-/- DRG-NSCs; test: Nf1-/- DRG-NSC proliferation (Ki67+); format: cell-based, mouse
[16] = test system: human shNF1 Schwann cells; test: Human shNF1 Schwann cell proliferation (Ki67+); format: cell-based; conditions: shNF1 SCs
[17] = test system: COL1A2; test: COL1A2 RNA expression in human shNF1 Schwann cells; format: cell-based; conditions: COL1A2 treatment
[18] = test system: WT and Nf1+/1809 RGC neurons; format: cell-based, mouse
[19] = Nf1-OPG mice, LTR 25 mg/kg/day intraperitoneally, vs vehicle
[20] = Nf1-OPG mice, lamotrigine intraperitoneal, 3 months of age, vs vehicle
[21] = 25 mg/kg intraperitoneal three times a week for 6 weeks
[22] = 25 mg/kg intraperitoneal three times a week for 6 weeks, listed as LTR

Compound: Cc1ccc(=O)n(-c2ccccc2)c1 [Pirfenidone]
- efficacy in human clinical trials [1]: no efficacy

Compound: NC1=N[C@H](O)[C@H]2[C@H]3O[C@]4(O)O[C@@H]([C@@H](O)[C@@]2(N1)[C@@H]4O)[C@]3(O)CO [TTX, tetrodotoxin]
- effect on AP firing rates [2]: reduced
- effect on RAS activity (RAS-GTP) [3]: reduced
- effect on midkine expression / secretion [4]: reduced
- effect on midkine secretion / expression [5]: reduced
- midkine levels, fold decrease [5]: 1.9 fold
- effect on AP firing rate / RGC activity [6]: reduced
- neuronal activity (AP firing rate), fold decrease [6]: > 80 fold
- effect on DRG neuron AP firing rate / neuronal activity [7]: reduce
- Col1a2 secretion / expression, fold reduction [8]: 3.6 fold
- reduction of Col1a2 secretion [8]: 73%

Compound: Nc1nnc(-c2cccc(Cl)c2Cl)c(N)n1 [lamotrigine]
- effect on midkine expression in the RGC layer of retinae [9]: reduced
- effect on Mdk transcript relative expression in retinae ([9]; Nf1+/neo mice, LTR in vivo): decreased
- Mdk RNA and protein levels in retinae, fold decrease ([9]; Nf1+/neo retinae, lamotrigine in vivo, relative to vehicle): 1.9-2.3 fold
- Mdk levels in optic nerves, fold decrease ([9]; optic nerves, lamotrigine in vivo, relative to vehicle): 1.7-2 fold
- effect on Adam10 RNA expression in vivo ([9]; retinae / optic nerves of 12 week-old Nf1+/neo or Nf1-OPG mice, lamotrigine in vivo): did not change; also recorded: unchanged
- effect on Nlgn3 RNA expression in vivo ([9]; lamotrigine in vivo): did not change
- effect on Nlgn3 RNA expression in vivo ([9]; lamotrigine in vivo, listed as LTR): unaltered
- effect on AP firing rates [2]: reduced
- effect on RAS activity (RAS-GTP) [3]: reduced
- effect on CD3+ cells in optic nerves [10, 19]: reduced
- effect on Iba1+ cells in optic nerves [10, 19]: reduced
- effect on Ki67+ cells in optic nerves [10, 19]: reduced
- effect on OPG development ([10]; Nf1-OPG mice, at 3 months of age): reduced
- effect on optic nerve volumes ([10]; Nf1-OPG mice, lamotrigine intraperitoneal, 3 months of age): did not decrease
- T-cell (CD3+ cells) content, fold decrease [10, 20]: 1.6 fold
- microglia (% Iba1+ cells) content, fold decrease [10, 20]: 1.7 fold
- optic nerve volumes relative to WT controls, fold increased ([10]; lamotrigine-treated Nf1-OPG mice): 1.5 fold
- optic nerve proliferation (% Ki67+ cells), fold decrease [10]: 1.5 fold
- optic nerve proliferation (% Ki67+ cells), fold decrease ([10]; ip): 5.7 fold
- optic nerve proliferation (% Ki67+ cells), fold decrease ([10]; po, 10 mg/kg/day): 4 fold
- microglia (% Iba1+ cells) content, fold decrease ([10]; treatment from 4-8 weeks, 6 month-old Nf1-OPG mice, vs vehicle): 1.4 fold
- effect on midkine expression / secretion [4]: reduced
- effect on midkine secretion / expression [5]: reduced
- midkine levels, fold decrease [5]: 2.2 fold
- effect on AP firing rate / RGC activity [6]: reduced
- firing rates, % decrease [6]: > 80%
- effect on DRG neuron AP firing rate / neuronal activity [7]: reduce
- Col1a2 secretion / expression, fold reduction [8]: 1.8 fold
- reduction of Col1a2 secretion [8]: 47%
- effect on Col1a2 production / immunoreactivity within the tumors [11, 21]: reduced
- effect on neuronal histology (H&E) [11, 21]: partly restored
- effect on pNF progression in vivo [11, 21]: decreases
- effect on pNF size [11, 21]: reduced
- effect on Col1a2 production / immunoreactivity within the tumors [11, 22]: decreases
- effect on neuronal histology (H&E) [11, 22]: partly restores
- effect on pNF size [11, 22]: reduces
- effect on proliferation (Ki67+ cells) within the tumors ([11]; mouse, in vivo): reduces

Compound: CC[C@H](C)C(=O)O[C@H]1C[C@@H](C)C=C2C=C[C@H](C)[C@H](CC[C@@H]3C[C@@H](O)CC(=O)O3)[C@H]21 [lovastatin]
- effect on midkine expression in the RGC layer of retinae [9]: decreased; also recorded: reduced

Compound: NC(=O)c1cn(Cc2c(F)cccc2F)nn1 [rufinamide]
- effect on neuronal excitability [12]: reduces
- effect on Mdk (Midkine transcript) levels / Midkine expression [13]: reduces

Compound: COL1A2: collagen-1A2; neurofibroma mitogen produced by peripheral neurons, applied to Schwann cells and DRG-NSCs
- effect on COL1A2 RNA expression [14]: increased
- proliferation, fold increase in Ki67+ cells ([15]; COL1A2 12.5 μg/mL): 2.5-2.9 fold
- proliferation, fold increase in Ki67+ cells ([16]; COL1A2 12.5 μg/mL): 2.5-2.9 fold
- effect on COL1A2 RNA expression [17]: increased

Compound: ZD7288
- effect on midkine expression / secretion [4]: increases
- effect on Adam10 transcript expression [18]: did not alter
- effect on Nlgn3 transcript expression [18]: did not alter
- RGC neuron midkine production, fold increase [5]: 14-15 fold
- effect on midkine production [5]: increased
- DRG Col1a2 secretion, fold increase [8]: 2-2.8 fold
- effect on Col1a2 secretion [8]: increases

Compound: collagenase
- effect on the increase in proliferation conferred by NF1-mutant sensory neuron CM or COL1A2 ([15]; collagenase): completely abrogated
- effect on the increase in proliferation conferred by NF1-mutant sensory neuron CM or COL1A2 ([16]; collagenase): completely abrogated
